The source of these data is PMC11470414, “In vitro assessment of Dracocephalum lindbergii for growth inhibition, apoptosis induction, and cytokine modulation against Leishmaniamajor” (Heliyon, 2024).

Values after ≈ are worked out from the molar mass of the structure shown. Where two headings read alike, the source gives them in different places.

Series [1] deals with L. major intramacrophage amastigotes. Description: Anti-amastigote activity: counting Leishman bodies in 100 Giemsa-stained macrophages. It is filed as cell-based, Leishmania major. The note with it: for IC50: Leishmania major, Macrophage. How it is done:
To assess the leishmanicidal effect on L. major intramacrophage amastigotes, macrophages (10⁷ cells) were cultured for 24 h. Subsequently, 200 μL of metacyclic promastigotes were introduced to the macrophages at a 10:1 ratio. […] The cells were washed with 50 μL PBS to eliminate free parasites, fixed with methanol, and stained using Giemsa. The IC₅₀, defined as the concentration required to inhibit 50 % of the leishmanial organisms, was determined by counting Leishman bodies (amastigotes) in 100 macrophages under an optical microscope. All experiments were performed in triplicate.
To evaluate the leishmanicidal effects on L. major intramacrophage amastigotes, macrophages (1 × 10⁷ cells) were cultured for 24 h. Following this, 200 μL of metacyclic promastigotes were added to the macrophages at a 10:1 ratio. […] The cells were then washed with 50 μL PBS to remove any free parasites, fixed in methanol, and stained with Giemsa. The IC₅₀, or the concentration that inhibits 50 % of the leishmanial organisms, was assessed by counting Leishman bodies (amastigotes) in 100 macrophages under an optical microscope. Each experiment was conducted in triplicate, including negative controls (macrophages and parasites without treatment) and positive controls (macrophages and parasites treated with a known effective drug) for comparison.

The subject of the next series is L. major promastigotes. Description: Anti-promastigote activity (MTT, IC50). It is filed as cell-based, Leishmania major. The note with it: for IC50: Leishmania major. How it is done: (§1) To assess the impact of the D. lindbergii fraction on L. major promastigotes, amastigotes, and macrophages, cell viability was determined using the 3-(4,5-dimethylthiazol-2-yl)-2,5-diphenyl tetrazolium bromide (MTT). L. major in the logarithmic growth phase (1 × 10⁶) was plated in a 96-well microplate using RPMI-1640 medium supplemented with 10 % FBS and treated with different concentrations of the samples. The plates were then incubated. Subsequently, 10 μL of MTT (Sigma Chemical Co., St. Louis, MO) at a concentration of 5 mg/mL was added to each well. After incubation, DMSO was added to stop the reactions, and the optical density (OD) absorbance of the samples was measured at 570 nm using an ELISA plate reader (BioTek Company, USA). The results were analyzed by calculating the inhibition percentage through linear regression.
Drug susceptibility assays were conducted using promastigotes in the logarithmic growth phase. A volume of 90 μL of cultured L. major promastigotes (1 × 10⁶ cells/mL) was transferred to each well of a 96-well microplate. […] The reactions were stopped, ELISA readings were taken, and the IC₅₀ (50 % inhibitory concentration) was calculated according to established protocols.

The test system of another series is L. major amastigotes. Description: Apoptotic profile by flow cytometry (PE-Annexin V / 7-AAD). It is filed as cell-based, Leishmania major. The conditions noted are these: 100 μg/mL, vs negative control P < 0.001. On the procedure:
Apoptosis in L. major amastigotes was evaluated using flow cytometry with the BD Annexin V/PE Apoptosis Detection Kit (Fisher Scientific). […] After treatment, the parasites were washed with PBS and incubated in the dark at 25 °C with 5 μL of PE-Annexin V and 7 μL of 7-AAD for 15 min. The proportion of apoptotic parasites was then evaluated using FlowJo software.
A general note: Flow cytometry measures light scatter and fluorescence of single cells or particles in a stream.

A short description of series [2]: Toxicity on macrophages (MTT, CC50). It is filed as cell-based. The conditions noted are these: human, THP-1 macrophage cell line. How it is done:
(§2) The promastigote form of L. major (MRHO/IR/75/ER), the national standard isolate, was obtained from the Pasteur Institute of Iran and cultured at 25 °C in RPMI-1640 medium containing 10 % heat-inactivated FBS and 1 % penicillin/streptomycin. The THP-1 macrophage cell line, provided by the Kerman Leishmaniasis Research Center, was grown in Dulbecco's Modified Eagle Medium (DMEM) supplemented with 10 % FBS and 0.5 % antibiotics (Sigma, Poole, UK), and incubated at 37 °C with 5 % CO₂ [21].
as §1

In series [3] the test system is macrophage cell line (THP-1). The series can be described thus: Toxicity on macrophages (MTT, CC50). Type of series: cell-based. On the procedure:
as §2, §1

The next series relates to L. major. On the set-up: method as in PMID 33531168. The note with it: after 16 h of incubation; control 14 %; cited from earlier work.
Series [4] can be described thus: DPPH radical-scavenging antioxidant assay. The note with it: DPPH method, 517 nm. On the procedure:
The scavenging effect on 2,2-diphenyl-1-picrylhydrazyl (DPPH) free radicals was determined based on the reduction of DPPH as a stable free radical. The optical densities were measured at a wavelength of 517 nm. The elimination of free radicals was calculated using the following formula:= (absorbance of control-absorbance of the sample) / (absorbance of control) × 100.
(DPPH is a stable violet radical that fades when it is reduced.)

For orientation: IC50 means the concentration needed to halve the response being measured. As a reminder, the CC50 is the concentration giving 50% cytotoxicity. For the compound `C[C@@H]1[C@H](O)[C@@H](C)/C=C/C=C/C=C/C=C/C=C/C=C/C=C/[C@H](O[C@@H]2O[C@H](C)[C@@H](O)[C@H](N)[C@@H]2O)C[C@@H]2O[C@](O)(C[C@@H](O)C[C@@H](O)[C@H](O)CC[C@@H](O)C[C@@H](O)CC(=O)O[C@H]1C)C[C@H](O)[C@H]2C(=O)O` [Amphotericin B], the “average number of intramacrophage amastigotes (Mean ± SD)” value (“average number … (Mean ± SD)” below) in series [1] (24 h, 12.5 μg/mL) was found to be 34.2 ± 3.6; in series [1] (24 h, 25 μg/mL), 25.3 ± 4.2; in series [1] (24 h, 50 μg/mL), 20.4 ± 1.8; in series [1] (24 h, 100 μg/mL), 13.6 ± 2.6; in series [1] (24 h, 200 μg/mL) it was 3.6 ± 0.4; in series [1] (24 h, 400 μg/mL), 0.0 ± 0.0. For the same compound, the “average number … (Mean ± SD)” value amounted to 41.4 ± 3.0 in series [1] (48 h, 12.5 μg/mL); 30.1 ± 2.2 in series [1] (48 h, 25 μg/mL); 21.6 ± 2.4 in series [1] (48 h, 50 μg/mL); 10.1 ± 1.9 in series [1] (48 h, 100 μg/mL); 2.6 ± 0.3 in series [1] (48 h, 200 μg/mL); 0.0 ± 0.0 in series [1] (48 h, 400 μg/mL). The “average number … (Mean ± SD)” value in series [1] (72 h, 12.5 μg/mL) was 50.4 ± 4.8; in series [1] (72 h, 25 μg/mL), 42.3 ± 5.2; in series [1] (72 h, 50 μg/mL) it was 33.4 ± 3.0; in series [1] (72 h, 100 μg/mL), 20.4 ± 2.4; in series [1] (72 h, 200 μg/mL), 10.3 ± 0.8; in series [1] (72 h, 400 μg/mL), 0.0 ± 0.0. Moreover, the IC50 stood at 134 ± 18.6 µg/mL (≈ 145 µM) in series [1] (24 h, read-out: Amastigote (24 h) IC50 ± SD); 129 ± 14.2 µg/mL (≈ 139 µM) in series [1] (48 h, read-out: Amastigote (48h) IC50 ± SD); 101 ± 18.3 µg/mL (≈ 110 µM) in series [1] (72 h, read-out: Amastigote (72h) IC50 ± SD); 308 ± 22 µg/mL (≈ 333 µM) in the series with L. major promastigotes (24 h, read-out: Promastigote (24 h) IC50 ± SD); 294 ± 15.3 µg/mL (≈ 318 µM) with L. major promastigotes (48 h, read-out: Promastigote (48h) IC50 ± SD); 264 ± 20.7 µg/mL (≈ 285 µM) in the series on L. major promastigotes (72 h, read-out: Promastigote (72h) IC50 ± SD). For the same compound, the “induction of apoptosis in intra-macrophage amastigotes” value in the series with L. major amastigotes is “significant induction of apoptosis”. Moreover, half-maximal cytotoxicity in series [2] (24 h) (CC50 at 24 h) was put at 792 ± 28.6 µg/mL (≈ 857 µM). The CC50 at 48 h in series [2] (48 h) was 772 ± 24.6 µg/mL (≈ 836 µM). The half-maximal cytotoxic concentration (CC50) at 72 h in series [2] (72 h) is 749 ± 18.6 µg/mL (≈ 810 µM). The “SI= CC50 Macrophages/IC50 Amastigotes (Selectivity Index)” value in series [3] (24 h) stood at 5.93. Also, the “SI = CC50Macrophages/IC50Amastigotes (Selectivity Index)” value in series [3] (72 h) was 7.40.

In the case of `COc1cc(/C=C/C(=O)CC(=O)/C=C/c2ccc(O)c(OC)c2)ccc1O` [curcumin], the “maximum accumulation of S-phase cells” value in the series with L. major is reported as “about 33%”.

Take `COc1ccc(O)c(C(C)(C)C)c1` [BHA, butylated hydroxyanisole]: the “IC50 of DPPH radical scavenging” value in series [4] is 249.3 µg/mL.

In the case of meglumine antimoniate [MAT], the “Amastigote (24 h) IC50 ± SD” value in series [1] (24 h) is recorded as 127.3 ± 14.9. The “average number … (Mean ± SD)” value in series [1] (24 h, 12.5 μg/mL) was 31.1 ± 4.2; in series [1] (24 h, 25 μg/mL) it was 22.3 ± 3.1; in series [1] (24 h, 50 μg/mL) it was 18.6 ± 2.5; in series [1] (24 h, 100 μg/mL) it was 11.4 ± 2.2; in series [1] (24 h, 200 μg/mL), 2.1 ± 0.1; in series [1] (24 h, 400 μg/mL), 0.0 ± 0.0. The “average number … (Mean ± SD)” value in series [1] (48 h, 12.5 μg/mL) turned out to be 39.6 ± 1.1; in series [1] (48 h, 25 μg/mL) it was 27.6 ± 1.8; in series [1] (48 h, 50 μg/mL), 18.4 ± 2.0; in series [1] (48 h, 100 μg/mL), 8.6 ± 0.9; in series [1] (48 h, 200 μg/mL) it was 2.2 ± 0.4; in series [1] (48 h, 400 μg/mL) it was 0.0 ± 0.0. Moreover, the “average number … (Mean ± SD)” value is listed as 49.3 ± 5.7 in series [1] (72 h, 12.5 μg/mL); 40.3 ± 6.4 in series [1] (72 h, 25 μg/mL); 31.2 ± 4.1 in series [1] (72 h, 50 μg/mL); 18.4 ± 2.5 in series [1] (72 h, 100 μg/mL); 8.6 ± 0.2 in series [1] (72 h, 200 μg/mL); 0.0 ± 0.0 in series [1] (72 h, 400 μg/mL). For the same compound, the “Amastigote (48h) IC50 ± SD” value in series [1] (48 h) was determined as 112.6 ± 9.5. The “Amastigote (72h) IC50 ± SD” value in series [1] (72 h) stood at 93.6 ± 15.2. The “Promastigote (24 h) IC50 ± SD” value with L. major promastigotes (24 h) is recorded as 301.8 ± 24.3. For the same compound, the “Promastigote (48h) IC50 ± SD” value in the series on L. major promastigotes (48 h) came to 286.2 ± 17.3. In addition, the “Promastigote (72h) IC50 ± SD” value with L. major promastigotes (72 h) was found to be 251.6 ± 28.4. Moreover, the “induction of apoptosis in intra-macrophage amastigotes” value with L. major amastigotes is listed as “significant induction of apoptosis”.
